Test results from the supplement of paper PMC12317010.
Structures can show the parent of a compound that is named as a salt.

Test: collision cross section in nitrogen (drift tube, single-field); higher = larger gas-phase ion size
[1] = ion type: [M+H], ion source: ESI, ion mode: Positive
[2] = ion type: [M+Na], ion source: ESI, ion mode: Positive
[3] = ion type: [M-H], ion source: ESI, ion mode: Negative
[4] = ion type: [M+H], ion source: APCI, ion mode: Positive
[5] = ion source: ESI, ion mode: Positive, ion type: [M]+ (permanent cation)
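Note: chemical standards at 10 µM analysed by drift tube IMS-QTOF MS in about 3.95 torr nitrogen, mean of duplicate injections differing ≤1%, mass error below 10 ppm.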

Structure (SMILES) | collision cross section in nitrogen [1] [Å²] | collision cross section in nitrogen [2] [Å²] | collision cross section in nitrogen [3] [Å²] | other results
OCC(CO)(CO)COCC(CO)(CO)CO [Dipentaerythritol] | 154.2 | 157.9 | 154.6 | –
CCCCCOC(=O)c1ccccc1C(=O)OCCCCC [Dipentyl phthalate] | – | 193.4 | – | –
CN(C)C(=O)C(c1ccccc1)c1ccccc1 [Diphenamid] | 154.7 | 164.6 | – | collision cross section in nitrogen [4]: 154.1 Å²
CN(C)CCOC(c1ccccc1)c1ccccc1 [Diphenhydramine hydrochloride] | – | 168.8 | – | –
O=P(O)(Oc1ccccc1)Oc1ccccc1 [Diphenyl phosphate] | 156.5 | – | 153.6 | –
O=C(Oc1ccccc1)c1ccccc1C(=O)Oc1ccccc1 [Diphenyl phthalate] | – | 181.1 | – | –
Cc1cc(C)c(C(=O)P(=O)(c2ccccc2)c2ccccc2)c(C)c1 [Diphenyl(2,4,6-trimethylbenzoyl)phosphine oxide] | – | 191.1 | – | –
c1ccc(Nc2ccccc2)cc1 [Diphenylamine] | 137.8 | – | – | collision cross section in nitrogen (ion type: [M+], ion source: APCI, ion mode: Positive): 133.9 Å²
O=C1NC(=O)C(c2ccccc2)(c2ccccc2)N1 [Diphenylhydantoin sodium] | – | – | 160.6 | –
CC1(C)OC[C@@H]2O[C@@]3(C(=O)O)OC(C)(C)O[C@H]3[C@@H]2O1 [Diprogulic acid] | – | 160.6 | 162.8 | –
CCCOC(=O)c1ccc(C(=O)OCCC)nc1 [Dipropyl 2,5-pyridinedicarboxylate] | 163.2 | 178.6 | – | collision cross section in nitrogen [4]: 163.2 Å²
CCCOC(=O)c1c(Cl)c(Cl)c(Cl)c(Cl)c1C(=O)OCCC [Dipropyl 3,4,5,6-tetrachlorobenzene-1,2-dicarboxylate] | – | 191.8 | – | –
CCCOC(=O)CCCCC(=O)OCCC [Dipropyl hexanedioate] | – | 168.6 | – | –
Cc1c(N(C)CS(=O)(=O)O)c(=O)n(-c2ccccc2)n1C [Dipyrone monohydrate] | – | – | 173.9 | –
O=S(=O)(O)c1ccc2cc(O)c(S(=O)(=O)O)cc2c1 [Disodium 3-hydroxynaphthalene-2,7-disulfonate] | – | – | 160.1 | –
O=S(=O)(O)c1ccccc1C=Cc1ccc(-c2ccc(C=Cc3ccccc3S(=O)(=O)O)cc2)cc1 [Disodium 4,4'-bis(2-sulfostyryl)biphenyl] | – | – | 248.5 | –
CC(=O)OCCN(CCOC(C)=O)c1ccc(N=Nc2ccc([N+](=O)[O-])cc2C#N)cc1 [Disperse Red 82] | 213.3 | 201.3 | – | collision cross section in nitrogen [4]: 213.1 Å²
CCOP(=S)(OCC)SCCS(=O)(=O)CC [Disulfoton sulfone] | – | 166 | – | –
CCCCCCCCCCCCCOC(=O)c1ccccc1C(=O)OCCCCCCCCCCCCC [Ditridecyl phthalate (mixture of branched chain isomers)] | – | 244.3 | – | –
CN(C)C(=O)Nc1ccc(Cl)c(Cl)c1 [Diuron] | 150.9 | – | 147.5 | collision cross section in nitrogen [4]: 151.3 Å²

Structure (SMILES) | collision cross section in nitrogen [1] [Å²] | collision cross section in nitrogen [2] [Å²] | collision cross section in nitrogen [3] [Å²] | other results
CCCCC(CC)COC(=O)CC(C(=O)OCC(CC)CCCC)S(=O)(=O)O (configuration not stated) [Docusate sodium] | – | – | 206.1 | –
CCCCCCCCCCCCOC(C)=O [Dodecyl acetate] | – | – | 162 | –
CCCCCCCCCCCCN [Dodecylamine hydrochloride] | 164 | – | – | –
CCCCCCCCCCCCc1ccc(S(=O)(=O)O)cc1 [Dodecylbenzenesulfonic acid] | – | 167.4 | 184.8 | –
CCCCCCCCCCCCNC(=N)N [Dodecylguanidine acetate] | – | – | – | collision cross section in nitrogen [4]: 175.2 Å²
CCCCCCCCCCCC[N+](C)(C)C [Dodecyltrimethylammonium bromide] | – | – | – | collision cross section in nitrogen [5]: 175.8 Å²
CCCCCCCCCCCC[N+](C)(C)C [Dodecyltrimethylammonium chloride] | – | – | – | collision cross section in nitrogen (ion source: APCI, ion mode: Positive, ion type: [M]+ (permanent cation)): 175.2 Å²; collision cross section in nitrogen [5]: 175.9 Å²
COc1cccc2c1C(=O)c1c(O)c3c(c(O)c1C2=O)C[C@@](O)(C(=O)CO)C[C@@H]3O[C@H]1C[C@H](N)[C@H](O)[C@H](C)O1 [Doxorubicin hydrochloride] | 230 | 232.8 | 223.1 | collision cross section in nitrogen [4]: 230.5 Å²
CN(C)CCOC(C)(c1ccccc1)c1ccccn1 (configuration not stated) [Doxylamine succinate] | – | – | – | collision cross section in nitrogen [4]: 162 Å²
CCOc1ccc(NC(N)=O)cc1 [Dulcin] | 144.1 | 149.7 | – | collision cross section in nitrogen [4]: 144.5 Å²
O=C(OCC1CCC2OC2C1)C1CCC2OC2C1 (configuration not stated) [ECC] | – | 158 | – | –
Clc1ccc(COC(Cn2ccnc2)c2ccc(Cl)cc2Cl)cc1 (configuration not stated) [Econazole nitrate] | 185.7 | 193.2 | – | collision cross section in nitrogen [4]: 185.8 Å²
O=C1Nc2ccc(Cl)cc2[C@@](C#CC2CC2)(C(F)(F)F)O1 [Efavirenz] | – | – | 168.1 | –
CN1CCN(c2ccccc2/C=C2\SCCN(c3ccc(Cl)c(Cl)c3)C2=O)CC1 [Elzasonan] | 203.8 | 211.4 | – | collision cross section in nitrogen [4]: 204 Å²
Cc1cc(O)c2c(c1)C(=O)c1cc(O)cc(O)c1C2=O [Emodin] | – | – | 154.6 | –
O=S1(=O)OCC2C(CO1)C1(Cl)C(Cl)=C(Cl)C2(Cl)C1(Cl)Cl (configuration not stated) [Endosulfan sulfate] | – | – | 173.3 | –
O=C(O)C1C2CCC(O2)C1C(=O)O (configuration not stated) [Endothal] | – | 140.1 | 135.6 | –
O=C1OC2(c3ccccc31)c1cc(Br)c(O)c(Br)c1Oc1c2cc(Br)c(O)c1Br [Eosin] | – | – | 207.8 | –
Fc1ccc([C@@]2(Cn3cncn3)O[C@@H]2c2ccccc2Cl)cc1 [Epoxiconazole] | 176.6 | 191.3 | – | collision cross section in nitrogen [4]: 176.9 Å²
C[C@]12CC[C@H]3C(=CCc4cc(O)ccc43)[C@@H]1CCC2=O [Equilin] | – | – | 172.2 | –
